The experiment addresses T1, flag-tagged HIF1α (AA 786-826) / His6-tagged p300 (AA 323-423) complex (Homo sapiens, UniProt Q09472).
T1 construct: His6-tagged p300 (AA 323-423); made in house; host or cells: E. coli (pETDuet vector)
The experiment is described as follows: HIF1α p300 displacement assay (TR FRET, +CHAPS). The class given is binding. The settings on record: read-out: IC50 (nM) (HIF1α_p300 Displacement + CHAPS). The method, then: The ability of peptides to displace HIF1α c-terminal trans-activation domain from p300-CH was measured by a TR FRET assay. A complex of flag-tagged HIF1α (AA 786-826) and His6-tagged p300 (AA 323-423) was co-expressed using pETDuet vector (EMDMillipore, Bellrica Mass.) and purified from E. coli in the presence of 0.1 mM ZnSO4. The complex was diluted to 300 nM final in complete assay media and competitor peptides were added. The complete assay media contained 150 mM NaCl (Sigma +S5150 or equivalent), 20 mM HEPES pH 7.4 (Boston Bioproducts, Ashland, Mass.; #BB-2076), 7.5 mM CHAPS (Thermo #28300 or equivalent), and 1 mM DTT. Protein and peptide were incubated at room temperature for 1 hour before the addition of anti-Flag-K and anti-6×HIS-D2 (CisBio, Bedford Mass.) HTRF reconstitution buffer (50 mM Phosphate pH 7, 0.8 Potassium Flouride, BSA 0.2%)^1 to a final concentration of 0.5 μM and 4 nM respectively. […] The reaction was read on a TECAN F500 plate reader with settings recommended by CisBio. The ratio of donor to acceptor fluorescence was calculated. The resulting data was analyzed with Graphpad Prism 5.0. IC50 values were calculated for both proteins using the One Site Fit-LogIC50 equation and presented in the column “IC50 (nM) (HIF1α_p300 Displacement+CHAPS)” of Table 6. ^1 Cisbio USA, Bedford, Mass.; 61HISDLB (lot 007A), 61FG2KLB (024A), HTRF Buffer (62RB3RDF)

Bridge positions count the residues as written; N and C are the ends. Square brackets hold non-standard residues; d marks the D form. Peptide text beside a SMILES is read from it. S5 = C=CCCC[C@](C)(N)C(=O)O; Nle = CCCC[C@H](N)C(=O)O

For `CCCC[C@H](NC(=O)[C@H](C)NC(=O)[C@@H](NC(=O)[C@@H](NC(=O)[C@H](CC(C)C)NC(=O)[C@]1(C)CCCC=CCCC[C@](C)(NC(=O)[C@H](CCC(=O)O)NC(=O)[C@H](CC(=O)O)NC(=O)[C@@H](NC(=O)[C@H](Cc2ccccc2)NC(C)=O)[C@@H](C)CC)C(=O)N[C@@H](C(C)C)C(=O)N[C@@H](CC(C)C)C(=O)N[C@@H](CCCC)C(=O)N1)C(C)C)[C@@H](C)CC)C(=O)N[C@@H](C)C(=O)N[C@@H](CC(C)C)C(=O)N[C@@H](CO)C(=O)N[C@@H](CO)C(=O)N[C@H](C(N)=O)[C@@H](C)CC` [SP-129] (Ac-FIDE[S5]VL[Nle][S5]LVIA[Nle]ALSSI-NH2; staple 5-9), the IC50 is more than 700 nM.

Source of the values: patent US20190225650A1, “PEPTIDOMIMETIC MACROCYCLES AND USE THEREOF IN REGULATING HIF1ALPHA” (AILERON THERAPEUTICS, INC., priority 2013, published 2019).
